Source: patent publication US20240247080A1, “GLP1/GIP/NPY2 RECEPTOR TRIPLE AGONISTS” (Boehringer Ingelheim International GmbH, priority 2022, published 2024)

What was measured:
[1] = Effect on acute food intake in normal NMRI mice; assay type: in vivo; conditions: 30 nmol/kg subcutaneously once, normalized to vehicle group, male NMRI mice
Method in brief: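 Male NMRI mice (n=8, ≥6 weeks old) had food withdrawn 8 h before dark phase and received a single subcutaneous dose of test peptide 1 h before lights-off; the vehicle was 50 mM phosphate pH 7.4/3.5% mannitol. Food intake was recorded hourly over 24 h by a microchip-based automated monitoring system.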

hGIPR = molecular target: T1, hGIPR (Homo sapiens, UniProt P48546); assay: hGIPR CreLuc reporter gene assay in 0.5% and 100% plasma; assay type: cell-based; conditions: CreLuc reporter gene assay, 0.5% human plasma; read-out: hGIPR 0.5% hP
T1 construct: expressed in transfected cells; host or cells: CHO cells carrying a CRE-luciferase reporter gene
T1 sequence (P48546 22-466): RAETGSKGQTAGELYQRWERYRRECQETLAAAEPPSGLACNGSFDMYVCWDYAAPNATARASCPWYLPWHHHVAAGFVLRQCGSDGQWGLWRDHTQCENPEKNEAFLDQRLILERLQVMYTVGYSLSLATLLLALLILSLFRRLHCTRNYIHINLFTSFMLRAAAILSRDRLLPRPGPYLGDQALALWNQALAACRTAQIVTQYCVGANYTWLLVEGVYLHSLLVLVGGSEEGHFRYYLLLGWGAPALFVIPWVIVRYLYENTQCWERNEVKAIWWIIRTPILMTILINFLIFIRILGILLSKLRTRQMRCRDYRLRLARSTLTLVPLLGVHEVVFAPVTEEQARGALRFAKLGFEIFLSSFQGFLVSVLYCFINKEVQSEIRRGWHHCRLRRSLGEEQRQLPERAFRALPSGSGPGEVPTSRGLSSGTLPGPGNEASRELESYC
Method in brief: (§1)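 Agonist EC50s came from 8-concentration curves over four decades, fitted by non-linear variable-slope regression of CRE-driven luciferase luminescence. Cells were exposed 4 h at 37 °C, in buffer with 0.5% human plasma or in 100% plasma; GIPR was expressed in CHO cells, GLP-1R and NPY2R in HEK cells.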

hNPY2R = molecular target: T2, hNPY2R (Homo sapiens, UniProt P49146); assay: hNPY2R CreLuc reporter gene assay in 0.5% and 100% plasma; assay type: cell-based; conditions: CreLuc reporter gene assay, 0.5% human plasma; read-out: hNPY2R 0.5% hP
T2 construct: expressed in transfected cells; host or cells: HEK-293 cells carrying a CRE-luciferase reporter gene
T2 sequence (P49146 1-381): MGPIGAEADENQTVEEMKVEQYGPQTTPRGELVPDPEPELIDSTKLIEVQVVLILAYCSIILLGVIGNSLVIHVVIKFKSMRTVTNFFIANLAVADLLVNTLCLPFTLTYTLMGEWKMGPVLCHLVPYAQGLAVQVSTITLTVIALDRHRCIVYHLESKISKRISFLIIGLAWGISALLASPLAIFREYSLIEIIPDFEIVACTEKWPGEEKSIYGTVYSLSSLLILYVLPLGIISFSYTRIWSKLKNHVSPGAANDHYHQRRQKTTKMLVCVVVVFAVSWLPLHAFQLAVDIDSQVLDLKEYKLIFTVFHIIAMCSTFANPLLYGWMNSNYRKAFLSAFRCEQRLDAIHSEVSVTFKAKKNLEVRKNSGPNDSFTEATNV
Method in brief: as §1

hGLP1R = molecular target: T3, hGLP1R (Homo sapiens, UniProt P43220); assay: hGLP1R CreLuc reporter gene assay in 0.5% and 100% plasma; assay type: cell-based; conditions: CreLuc reporter gene assay, 0.5% human plasma; read-out: hGLP1R 0.5% hP
T3 construct: expressed in transfected cells; host or cells: HEK-293 cells carrying a CRE-luciferase reporter gene
Method in brief: as §1

[2] = Mouse PK after intravenous application; assay type: in vivo; conditions: plasma, mean residence time, intravenous 30-60 nmol/kg, male NMRI mice
Method in brief: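 Male NMRI mice (30–40 g) received 30-60 nmol/kg peptide by tail-vein injection, dissolved in 50 mM phosphate buffer (pH 7.4)/3.5% mannitol. Saphenous blood was sampled up to 56 hours post-dose and EDTA plasma analysed by LC-MS. PK parameters came from non-compartmental analysis.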

T3 sequence (P43220 24-463): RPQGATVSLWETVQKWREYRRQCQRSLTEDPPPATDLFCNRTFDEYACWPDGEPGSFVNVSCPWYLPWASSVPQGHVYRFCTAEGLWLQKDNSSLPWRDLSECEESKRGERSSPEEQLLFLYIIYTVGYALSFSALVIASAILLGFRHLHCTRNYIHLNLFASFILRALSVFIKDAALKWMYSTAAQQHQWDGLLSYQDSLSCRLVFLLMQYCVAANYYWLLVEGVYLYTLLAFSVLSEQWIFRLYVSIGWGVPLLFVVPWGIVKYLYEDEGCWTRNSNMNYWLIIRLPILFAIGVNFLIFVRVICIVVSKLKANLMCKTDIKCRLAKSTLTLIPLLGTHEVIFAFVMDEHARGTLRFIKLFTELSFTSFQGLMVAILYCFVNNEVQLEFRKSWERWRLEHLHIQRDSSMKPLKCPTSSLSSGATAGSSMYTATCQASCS

EC50 (hGIPR): 0.19 nM
EC50 (hNPY2R): 13.3 nM
EC50 (hGLP1R): 0.24 nM
MRT [2]: 11.8 h
Structure (SMILES): CC[C@H](C)[C@H](NC(=O)[C@H](CC(C)C)NC(=O)[C@H](Cc1c[nH]c2ccccc12)NC(=O)[C@H](CCC(=O)O)NC(=O)[C@@H](NC(=O)[C@H](Cc1ccccc1)NC(=O)[C@H](C)NC(=O)C(C)(C)NC(=O)[C@H](CCC(N)=O)NC(=O)[C@H](C)NC(=O)[C@H](CCC(N)=O)NC(=O)[C@H](CCCCN)NC(=O)[C@H](CCC(=O)O)NC(=O)[C@H](CC(C)C)NC(=O)C(C)(C)NC(=O)[C@@H](NC(=O)[C@H](CO)NC(=O)[C@H](Cc1ccc(O)cc1)NC(=O)[C@H](CC(=O)O)NC(=O)[C@H](CO)NC(=O)[C@@H](NC(=O)[C@H](Cc1ccccc1)NC(=O)[C@@H](NC(=O)CNC(=O)[C@H](CCC(=O)O)NC(=O)C(C)(C)NC(=O)[C@@H](N)Cc1ccc(O)cc1)[C@@H](C)O)[C@@H](C)O)[C@@H](C)CC)C(C)C)C(=O)N[C@@H](CCCCNC(=O)[C@@H](N)CCCCNC(=O)CC[C@H](NC(=O)CC[C@H](NC(=O)CC[C@H](NC(=O)CC[C@H](NC(=O)CC[C@H](NC(=O)CC[C@H](NC(=O)CCCCCCCCCCCCCCCCCCC(=O)O)C(=O)O)C(=O)O)C(=O)O)C(=O)O)C(=O)O)C(=O)O)C(=O)NCC(=O)NCC(=O)N1CCC[C@H]1C(=O)N[C@@H](CO)C(=O)N[C@@H](CCC(=O)O)C(=O)NCC(=O)N[C@@H](C)C(=O)N[C@@H](CO)C(=O)N[C@@H](CC(C)C)C(=O)N[C@@H](CCCNC(=N)N)C(=O)N[C@@H](Cc1c[nH]cn1)C(=O)N[C@@H](Cc1ccc(O)cc1)C(=O)N[C@@H](Cc1ccc(O)cc1)C(=O)N[C@@H](CC(N)=O)C(=O)N[C@@H](Cc1c[nH]c2ccccc12)C(=O)N[C@@H](CC(C)C)C(=O)N[C@H](C(=O)N[C@@H](CCCNC(=N)N)C(=O)N(C)[C@@H](CCC(N)=O)C(=O)N[C@@H](CCCNC(=N)N)C(=O)N[C@@H](Cc1ccc(O)cc1)C(N)=O)[C@@H](C)O [Compound 222, Y-Aib-E-G-T-F-T-S-D-Y-S-I-Aib-L-E-K-Q-A-Q-Aib-A-F-V-E-W-L-I-K(1,3)-G-G-P-S-E-G-A-S-L-R-H-Y-Y-N-W-L-T-R-NMeQ-R-Y-NH2.C20DA-gGlu-gGlu-gGlu-gGlu-gGlu-gGlu-eLys(1,2)]
Acute Food Intake 24 h 30 nmol/kg [% CTL] [1]: 72 % CTL
